# From patent US20200121801A1, “DRUG DELIVERY CONJUGATES CONTAINING UNNATURAL AMINO ACIDS AND METHODS FOR USING” (priority 2012, published 2020)
# What was measured:
# [1] = test system: experimental autoimmune encephalomyelitis; assay: Autoimmune encephalomyelitis (EAE) model; format: in vivo, rats; conditions: when dosed alone
# Experimental: METHOD. Autoimmune Encephalomyelitis (EAE) Model. EAE is induced in rats by immunization against 25 μg of guinea pig myelin basic protein (MBP) formulated with CFA containing 1 mg of grounded Mycobacterium tuberculosis H37Ra. Pertussis toxin is given intraperitoneally (1 μg/rat) to enhance the organ-specific autoimmunity. Starting 8 days after induction, rats are divided into […]: (1) untreated control (n=8), (2) test compound (n=7), and (3) test compound plus competitor compound (n=7), such as EC0923 competition. All treatments start on day 8 after EAE induction. The animals in the EAE control group are left untreated. […] The clinical severity of EAE is monitored on a daily basis and graded on a scale of 0 to 5 per animal. The clinical signs of ascending paralysis of EAE rats are divided into a 0-5 scale: 0=No disease, 0.5=distal limp tail, 1=limp tail, 2=mild paraparesis; ataxia-weakened hind limbs, 3=moderate paraparesis; hind limbs paresis, 4=complete hind limb paralysis, 5=complete hind limb paralysis and incontinence (euthanasia). On day 16, the animals are euthanized and brain and spinal cords are fixed in formalin for histology.
# [2] = Relative whole animal toxicity in folate deficient rats; format: in vivo; conditions: 3 μmol/kg i.v. BIW, 2 weeks
# Experimental: EXAMPLE. […] Test compounds are administered i.v. at equivalent doses to folate deficient rats.
# [3] = Plasma stability / free drug release after s.c. dose (EC1496 vs EC0746); format: in vivo, rats; conditions: 500 nmol/kg s.c.
# Experimental: METHOD. Human serum stability. Compounds described herein are tested in human serum for stability using conventional protocols and methods. Briefly, test compound is administered to the test animal, such as by subcutaneous injection. The plasma concentration of the conjugate, and optionally one or more metabolites, is monitored over time. The results are graphed to determine Cmax, Tmax, half-life, and AUC for the test compound and metabolites.
# EXAMPLE. […] EC1495 and EC0746 (comparator compound) are each administered at 500 nmol/kg by subcutaneous injection. The plasma concentration of the conjugate and the metabolites (aminopterin and aminopterin hydrazide) are monitored over time. […] As also shown in the following table, free drug is released as the parent aminopterin and the hydrazide derivative (EC0470).
# [4] = Cytotoxicity of unconjugated tubulysins to cells in culture; format: cell-based; conditions: cells in culture (cell line not given); read-out: typical IC50, cytotoxic to cells in culture
# KB tumors = assay: Inhibition of tumor growth, s.c. KB tumors in nu/nu mice; format: in vivo; conditions: 1.0 μmol/kg (only 2 doses due to toxicity), TIW, 2 weeks
# Experimental: METHOD. Inhibition of Tumor Growth in Mice. […] For tumor cell inoculation, 1×10^6 M109 cells (a syngeneic lung carcinoma) in Balb/c strain, or 1×10^6 KB cells in nu/nu strain, in 100 μL are injected in the subcutis of the dorsal medial area (right axilla).
# METHOD. Toxicity as Measured by Weight Loss. The percentage weight change of the test animals is determined on selected days post-tumor inoculation (PTI), and during dosing. The results are graphed.
# [5] = Pharmacokinetic biodistribution of 3H-EC1669 and 3H-methotrexate; format: in vivo, Balb/c mice
# Experimental: METHOD. Pharmacokinetic biodistribution. Studies in this section included a minimum of 3 test animals (mice) per time point. The pharmacokinetic biodistribution of test compound, such as ^3H-EC1669 (label on the drug), compared to positive control, such as ^3H-methotrexate (^3H-MTX), is observed in female Balb/c mice on folate-deficient diet. Compounds are administered as a single subcutaneous (SC) injection at 500 nmol/kg. Whole blood (>300 μL) along with ˜100 mg each of various tissues of interests are collected at various time points (such as 10 min, 30 min, 1 h, 2 h, 4 h, 8 h, 12 h, 24 h, and 72 h). The blood samples are placed in BD microtainer tubes (heparin) and centrifuged (4,000 g×3 min, 4° C.) to separate plasma (>100 μL). The remaining red blood cell (RBC) mass is washed 2× with phosphate buffered saline (PBS, pH 7.4) to obtain RBCs. The collected tissues are weighed and processed to determine ^3H-EC1669 and ^3H-MTX distribution: plasma, RBC, heart, lung, liver (the smallest lobe), spleen, kidney (1), intestine (above cecum), fecal material (from colon), muscle, and brain.
# [6] = Renal/hepatic secretion study; format: in vivo, mice; conditions: 24 h post-dose, s.c.
# Experimental: In a subsequent renal/hepatic secretion study, mice are housed in metabolic cages with a 6-h fast before subcutaneous administration of ^3H-EC1669 or ^3H-MTX. At 24 h post-dose, ˜14% more radioactivity is found in the pooled urine of ^3H-EC1669 dosed animals than in ^3H-MTX dosed animals. In contrast, twice as much radioactivity was found in the pooled feces of ^3H-MTX dosed animals than in EC1669 dosed animals. […] MTX reportedly causes hepatotoxicity as a major side effect, especially after long-term use. Without being bound by theory, it is believed herein that the preferential renal clearance of the compounds described herein will lead to fewer side effects such as hepatotoxicity.
# [7] = test system: KB-CR2000 (cisplatin resistant) tumors; assay: Cisplatin-resistant KB-CR2000 tumor model; format: in vivo, mice; conditions: cisplatin 3 mg/kg twice per week, 2 weeks
# [8] = 10 min post-dose, 500 nmol/kg s.c.
structure (smiles),measurement,setting,value
N=c1[nH]c(N)nc2ncc(CNc3ccc(C(=O)N[C@@H](CCC(=O)NNC(=O)OCCSSC[C@@H](NC(=O)[C@H](CCC(=O)NC[C@H](O)[C@@H](O)[C@H](O)[C@H](O)CO)NC(=O)[C@@H](CCC(=O)O)NC(=O)[C@H](CCC(=O)NC[C@H](O)[C@@H](O)[C@H](O)[C@H](O)CO)NC(=O)[C@@H](CCC(=O)O)NC(=O)[C@H](CCC(=O)NC[C@H](O)[C@@H](O)[C@H](O)[C@H](O)CO)NC(=O)CC[C@@H](NC(=O)c4ccc(NCc5cnc6nc(N)[nH]c(=O)c6n5)cc4)C(=O)O)C(=O)O)C(=O)O)cc3)nc12 [EC1496],treatment-related weight loss,[1],not observed
same,toxicity relative to comparative example EC0746,[2],less toxic
same,"Cmax of conjugate, comparison",[3],higher Cmax than EC0746
same,"half-life, comparison with EC0746",[3],shorter half-life
same,Free drug released (%): AMT,[3]; plasma,5.13%
same,Free drug released (%): AMT-hydrazide (EC0470),[3]; plasma,3.15%
same,Free drug released (%): Total,[3]; plasma,8.28%
"CCCC(=O)OCN(C(=O)[C@@H](NC(=O)[C@H]1CCCCN1C)C(C)CC)[C@H](C[C@@H](OC(C)=O)c1nc(C(=O)N[C@@H](Cc2ccc(O)cc2)C[C@H](C)C(=O)NN)cs1)C(C)C (some centres unmarked) [TubB-H, reference compound]",IC50,[4],~1 nM
same,CR,KB tumors,0%
same,Cures,KB tumors,0%
same,PR,KB tumors,0%
same,Toxicity: Avg. Weight Loss,KB tumors,>15%
same,Toxicity: Deaths,KB tumors,20%
N=c1[nH]c(N)nc2ncc(CNc3ccc(C(=O)N[C@@H](CCC(=O)NNC(=O)OCCSSC[C@@H](NC(=O)[C@H](CCC(=O)NC[C@H](O)[C@@H](O)[C@H](O)[C@H](O)CO)NC(=O)[C@@H](CCC(=O)O)NC(=O)[C@H](CCC(=O)NC[C@H](O)[C@@H](O)[C@H](O)[C@H](O)CO)NC(=O)[C@@H](CCC(=O)O)NC(=O)[C@H](CCC(=O)NC[C@H](O)[C@@H](O)[C@H](O)[C@H](O)CO)NC(=O)CC[C@H](NC(=O)c4ccc(NCc5cnc6nc(N)[nH]c(=O)c6n5)cc4)C(=O)O)C(=O)O)C(=O)O)cc3)nc12 [^3H-EC1669],tissue uptake at 10 min,"[5]; female, Balb/c, mouse, plasma, sc, total radioactivity, 10 min post-dose, 500 nmol/kg s.c., read-out: found in the plasma",12 %ID/g
same,more radioactivity in pooled urine than in 3H-MTX dosed animals,[6],~14%
"CN(Cc1cnc2nc(N)nc(N)c2n1)c1ccc(C(=O)N[C@@H](CCC(=O)O)C(=O)O)cc1 [^3H-MTX, ^3H-methotrexate]",captured by the liver,[5]; [8],31 % ID/g
same,found in the plasma,[5]; [8],5.2 % ID/g
same,"retention in RBCs, spleen, liver, intestine, and feces",[5]; entire sampling period,consistently higher than that of ^3H-EC1669
same,radioactivity in pooled feces vs EC1669 dosed animals,[6],twice as much
"N.N.[Cl][Pt][Cl] [cisplatin, reference compound]",partial response (PR),[7],did not produce even a single partial response
